For test [1], the system named is ornithine decarboxylase (ODC). Briefly: Ornithine decarboxylase assay, inhibition of TPA induction of ODC. The test is classed as cell-based. The settings on record: esters of Compounds 9 and 10.
A further test concerns RARs and RXRs. Briefly: Co-transfection assay, RAR and RXR receptors taken together. Format: cell-based. As for the experimental part:
Utilizing the "cis-trans" or "co-transfection" assay described by Evans et al., Science, 240:889-95 (May 13, 1988), the disclosure of which is herein incorporated by reference, the retinoid compounds of the present invention were tested and found to have strong, specific activity as either selective RAR agonists, selective RXR agonists, or as pan-agonist activators of both RAR and RXR receptors. This assay is described in further detail in U.S. Pat. Nos. 4,981,784 and 5,071,773, the disclosures of which are incorporated herein by reference.
In the co-transfection assay, a cloned cDNA for an IR (e.g., human RARα, RARβ, RXRγ) under the control of a constitutive promoter (e.g., the SV 40 promoter) is introduced by transfection (a procedure to induce cells to take up foreign genes) into a background cell substantially devoid of endogenous IRs. This introduced gene directs the recipient cells to make the IR protein of interest. A second gene is also introduced (co-transfected) into the same cells in conjunction with the IR gene. This second gene, comprising the cDNA for a reporter protein, such as firefly luciferase (LUC), is controlled by an appropriate hormone responsive promoter containing a hormone response element (HRE). This reporter plasmid functions as a reporter for the transcription-modulating activity of the target IR. Thus, the reporter acts as a surrogate for the products (mRNA then protein) normally expressed by a gene under control of the target receptor and its native hormone.
The co-transfection assay can detect small molecule agonists or antagonists of target IRs. Exposing the transfected cells to an agonist ligand compound increases reporter activity in the transfected cells. This activity can be conveniently measured, e.g., by increasing luciferase production, which reflects compound-dependent, IR-mediated increases in reporter transcription. […] . Increasing concentrations of a suspected antagonist will decrease the reporter signal (e.g., luciferase production). The co-transfection assay is therefore useful to detect both agonists and antagonists of specific IRs. Furthermore, it determines not only whether a compound interacts with a particular IR, but whether this interaction mimics (agonizes) or blocks (antagonizes) the effects of the native regulatory molecules on target gene expression, as well as the specificity and strength of this interaction.
To determine RAR and/or RXR agonist activity of the compounds of the present invention, the CV-1 cells were transiently transfected by calcium phosphate coprecipitation according to the procedure of Berger et al., 41 J. Steroid Biochem. Mol. Biol., 733 (1992) with the following receptor expressing plasmids: pRShRARα: Giguere et at., 330 Nature, 624 (1987); pRShRARβ and pRShRARγ, Ishikawa et al., 4 Mol. Endocrin., 837 (1990); pRShRXRα, Mangelsdorf et at., 345 Nature, 224 (1990); and pRSmRXRβ and pRSmRXRγ, Mangelsdorf et al., 6 Genes & Devel., 329 (1992), the disclosures of which are herein incorporated by reference. Each of these receptor expressing plasmids was co-transfected at a concentration of 5 ng/well, along with a basal reporter plasmid at 100 ng/well, the internal control plasmid pRS-β-Gal at 50 ng/well and filler DNA, pGEM at 45 ng/well.

Another test relates to RAR and RXR receptors. Briefly: Binding to the retinoid receptors taken together. The settings on record: RARs and RXRs; compounds 9 and 10 versus ATRA and 9-cis.
The target of a further test is T1, RARγ (Homo sapiens, UniProt P13631).
T1 construct: expressed in transfected cells; host or cells: CV-1 (African green monkey kidney)
T1 sequence (P13631 1-454): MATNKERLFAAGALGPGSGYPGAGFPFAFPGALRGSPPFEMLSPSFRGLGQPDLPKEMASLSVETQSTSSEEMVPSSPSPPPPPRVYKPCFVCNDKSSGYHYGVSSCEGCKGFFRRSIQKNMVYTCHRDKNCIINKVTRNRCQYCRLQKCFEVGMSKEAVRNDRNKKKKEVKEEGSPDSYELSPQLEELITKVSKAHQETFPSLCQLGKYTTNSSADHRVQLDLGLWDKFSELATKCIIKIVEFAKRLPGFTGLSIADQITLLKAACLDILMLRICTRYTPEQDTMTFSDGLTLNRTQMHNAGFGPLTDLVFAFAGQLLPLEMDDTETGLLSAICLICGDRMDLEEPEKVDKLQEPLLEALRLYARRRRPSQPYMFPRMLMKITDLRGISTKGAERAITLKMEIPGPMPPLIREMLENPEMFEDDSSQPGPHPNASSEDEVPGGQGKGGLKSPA
Briefly: Co-transfection assay, RARγ agonist activity. Format: cell-based. Conditions: for EC50: CV-1 cells, 40 hours, read-out: Potency (EC50) RARγ.

For the next test, the target named is T2, RARβ (Homo sapiens, UniProt P10826).
T2 construct: expressed in transfected cells; host or cells: CV-1 (African green monkey kidney)
T2 sequence (P10826 1-448 isoform P10826-2): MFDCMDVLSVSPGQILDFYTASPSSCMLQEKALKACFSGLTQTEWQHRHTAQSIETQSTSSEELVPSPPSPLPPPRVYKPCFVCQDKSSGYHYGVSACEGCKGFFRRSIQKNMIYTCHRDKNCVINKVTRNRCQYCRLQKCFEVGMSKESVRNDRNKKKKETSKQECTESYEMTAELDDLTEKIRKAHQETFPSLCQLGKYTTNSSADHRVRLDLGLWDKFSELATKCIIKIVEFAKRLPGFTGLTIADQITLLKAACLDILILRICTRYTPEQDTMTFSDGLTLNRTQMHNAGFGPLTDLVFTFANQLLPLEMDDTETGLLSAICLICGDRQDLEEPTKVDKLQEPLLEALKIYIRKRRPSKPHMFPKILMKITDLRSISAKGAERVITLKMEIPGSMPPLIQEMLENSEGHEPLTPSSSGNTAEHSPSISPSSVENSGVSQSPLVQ
Briefly: Co-transfection assay, RARβ agonist activity. Conditions: CV-1 cells, 40 hours, read-out: Potency (EC50) RARβ. Format: cell-based.

A further test has as its target T3, RXRα (Homo sapiens, UniProt P19793).
T3 construct: expressed in transfected cells; host or cells: CV-1 (African green monkey kidney)
T3 sequence (P19793 1-462): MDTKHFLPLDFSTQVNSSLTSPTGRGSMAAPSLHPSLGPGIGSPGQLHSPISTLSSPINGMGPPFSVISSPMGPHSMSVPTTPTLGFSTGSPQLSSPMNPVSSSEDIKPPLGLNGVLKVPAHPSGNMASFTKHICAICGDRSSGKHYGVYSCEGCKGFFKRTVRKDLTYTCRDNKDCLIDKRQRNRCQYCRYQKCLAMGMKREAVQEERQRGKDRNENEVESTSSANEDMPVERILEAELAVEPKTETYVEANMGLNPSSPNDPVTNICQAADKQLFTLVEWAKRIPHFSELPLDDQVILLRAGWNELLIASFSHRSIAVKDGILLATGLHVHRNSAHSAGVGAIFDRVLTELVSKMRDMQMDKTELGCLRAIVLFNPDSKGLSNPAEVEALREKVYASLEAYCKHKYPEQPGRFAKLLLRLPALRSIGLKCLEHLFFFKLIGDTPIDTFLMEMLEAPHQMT
Briefly: Co-transfection assay, RXRα agonist activity. The test is classed as cell-based. Conditions: CV-1 cells, 40 hours, read-out: Potency (EC50) RXRα.

The target in another test is T4, RXRβ (Mus musculus, UniProt P28704).
T4 construct: expressed in transfected cells; host or cells: CV-1 (African green monkey kidney)
T4 sequence (P28704 1-520): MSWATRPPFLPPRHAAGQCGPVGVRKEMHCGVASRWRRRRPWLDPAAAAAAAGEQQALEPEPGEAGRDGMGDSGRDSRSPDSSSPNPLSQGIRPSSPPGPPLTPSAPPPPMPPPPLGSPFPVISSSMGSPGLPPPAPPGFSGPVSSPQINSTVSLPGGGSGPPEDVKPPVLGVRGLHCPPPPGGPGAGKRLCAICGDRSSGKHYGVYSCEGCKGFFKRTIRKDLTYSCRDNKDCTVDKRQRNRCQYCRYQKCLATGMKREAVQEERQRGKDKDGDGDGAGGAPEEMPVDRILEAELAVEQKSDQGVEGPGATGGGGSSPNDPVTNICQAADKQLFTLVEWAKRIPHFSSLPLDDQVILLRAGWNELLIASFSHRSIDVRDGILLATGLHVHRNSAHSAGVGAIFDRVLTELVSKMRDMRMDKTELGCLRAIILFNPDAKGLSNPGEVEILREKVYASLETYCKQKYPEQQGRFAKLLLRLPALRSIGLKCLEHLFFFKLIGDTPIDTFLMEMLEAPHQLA
Briefly: Co-transfection assay, RXRβ agonist activity. Conditions: CV-1 cells, 40 hours, read-out: Potency (EC50) RXRβ. Format: cell-based.

A further test deals with T5, RARα (Homo sapiens, UniProt P10276).
T5 construct: expressed in transfected cells; host or cells: CV-1 (African green monkey kidney)
T5 sequence (P10276 1-462): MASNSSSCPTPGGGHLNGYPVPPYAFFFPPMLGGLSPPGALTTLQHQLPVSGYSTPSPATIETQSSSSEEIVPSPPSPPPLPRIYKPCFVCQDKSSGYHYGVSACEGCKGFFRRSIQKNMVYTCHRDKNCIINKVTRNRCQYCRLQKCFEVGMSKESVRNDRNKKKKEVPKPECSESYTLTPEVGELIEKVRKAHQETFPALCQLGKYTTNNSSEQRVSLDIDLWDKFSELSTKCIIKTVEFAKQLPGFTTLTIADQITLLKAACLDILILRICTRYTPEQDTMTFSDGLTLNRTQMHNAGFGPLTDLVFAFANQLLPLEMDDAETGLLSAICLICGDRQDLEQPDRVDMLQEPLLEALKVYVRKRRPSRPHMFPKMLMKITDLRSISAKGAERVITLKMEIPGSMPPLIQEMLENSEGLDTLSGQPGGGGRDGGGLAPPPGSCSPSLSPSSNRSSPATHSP
Briefly: Co-transfection assay, RARα agonist activity. The test is classed as cell-based. The settings on record: CV-1 cells, 40 hours, read-out: Potency (EC50) RARα.

For another test, the target named is T6, RXRγ (Mus musculus, UniProt P28705).
T6 construct: expressed in transfected cells; host or cells: CV-1 (African green monkey kidney)
T6 sequence (P28705 1-463): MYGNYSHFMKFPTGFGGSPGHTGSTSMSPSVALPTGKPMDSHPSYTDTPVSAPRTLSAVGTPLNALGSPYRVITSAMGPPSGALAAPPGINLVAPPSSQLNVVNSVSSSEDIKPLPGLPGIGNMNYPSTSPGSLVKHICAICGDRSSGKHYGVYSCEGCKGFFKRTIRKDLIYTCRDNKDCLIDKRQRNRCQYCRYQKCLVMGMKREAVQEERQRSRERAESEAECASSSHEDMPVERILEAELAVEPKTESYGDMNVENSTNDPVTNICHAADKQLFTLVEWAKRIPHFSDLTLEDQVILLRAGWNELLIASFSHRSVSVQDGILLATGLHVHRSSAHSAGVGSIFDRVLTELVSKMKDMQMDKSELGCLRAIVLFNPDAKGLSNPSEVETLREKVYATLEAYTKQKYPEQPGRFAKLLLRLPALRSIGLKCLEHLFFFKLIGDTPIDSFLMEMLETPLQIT
Briefly: Co-transfection assay, RXRγ agonist activity. The test is classed as cell-based. Conditions: CV-1 cells, 40 hours, read-out: Potency (EC50) RXRγ.

Some results are limits rather than exact numbers.

As a reminder, the EC50 is the concentration needed to bring the measured effect to its halfway point.

For `CCOC(=O)/C=C(C)/C=C/C=C(\C)c1cc(C(C)(C)C)cc(C(C)(C)C)c1` [Compound 7, Ethyl (2E, 4E, 6E)-7-(3,5-di-t-butylphenyl)-3-methylocta-2,4,6-trienoate], the “retinoid activity of ester analogs (in words)” value in test [1] is listed as “exhibit retinoid activity”.

In the case of `CCOC(=O)/C=C(C)/C=C/C=C(/C)c1cc(C(C)(C)C)cc(C(C)(C)C)c1` [Compound 8, Ethyl (2E, 4E, 6Z)-7-(3,5-di-t-butylphenyl)-3-methylocta-2,4,6-trienoate], the “retinoid activity of ester analogs (in words)” value in test [1] is “exhibit retinoid activity”.

As for `CC(/C=C/C=C(\C)c1cc(C(C)(C)C)cc(C(C)(C)C)c1)=C\C(=O)O` [Compound 9, (2E, 4E, 6E)-7-(3,5-Di-t-butylphenyl)-3-methylocta-2,4,6-trienoic acid], the “RAR activity (in words)” value with RARs and RXRs (RARs) was “extremely potent RAR active compounds”. In addition, the “binding on the retinoid receptors (in words)” value in the test with RAR and RXR receptors is “equal or superior binding”. In addition, the “activity on RARγ (in words)” value on RARγ is reported as “sub-nanomolar activity on RARγ”.

Turning to `C/C(=C/C=C/C(C)=C/C(=O)O)c1cc(C(C)(C)C)cc(C(C)(C)C)c1` [Compound 10, (2E, 4E, 6Z)-7-(3,5-Di-t-butylphenyl)-3-methylocta-2,4,6-trienoic acid], in the test with RARs and RXRs (versus 9-cis, pan-agonist), the “potency profile in comparison to 9-cis retinoic acid (in words)” value is given as “superior potency profile”. In the test with RAR and RXR receptors, the “binding on the retinoid receptors (in words)” value was “equal or superior binding”.

For `CC(/C=C/C=C(\C)c1ccc(C(C)(C)C)cc1)=C\C(=O)O` [Compound 44, (2E, 4E, 6E)-7-(4-T-butyl-phenyl)-3-methylocta-2,4,6-trienoic acid], the EC50 at RARβ is 37 nM; at RXRα it was 1440 nM; on RXRβ, 21 nM; on RARγ, 33 nM; on RARα, 223 nM; on RXRγ, 224 nM.

As for `CCc1cc(C)c(\C(C)=C/C=C/C(C)=C/C(=O)O)cc1CC` [Compound 54], the EC50 was 130 nM on RARβ; 58 nM at RXRα; 28 nM at RXRβ; 320 nM on RARγ; above 10000 nM on RARα; 78 nM at RXRγ.

Source of the values: patent US5721103A, “Trienoic retinoid compounds and methods” (Ligand Pharmaceuticals Incorporated, priority 1995, dated 1998).
